Values quoted from earlier work in article PMC8592027, “Structure-Guided Design of D-Galactal Derivatives with High Affinity and Selectivity for the Galectin-8 N-Terminal Domain” (ACS Medicinal Chemistry Letters, 2021).

Legend:
Settings in all cases: cited from earlier work
[1] = target: T1, galectin-9N (N-terminal domain) (Homo sapiens, UniProt O00182)
T1 construct: galectins (N = N-terminal domain, C = C-terminal domain); made in house

galectin-2 = target: T2, galectin-2 (Homo sapiens, UniProt P05162); set-up: method as in PMID 30117507, PMID 15889175, doi:10.1139/cjc-2015-0598
T2 sequence (P05162 1-132): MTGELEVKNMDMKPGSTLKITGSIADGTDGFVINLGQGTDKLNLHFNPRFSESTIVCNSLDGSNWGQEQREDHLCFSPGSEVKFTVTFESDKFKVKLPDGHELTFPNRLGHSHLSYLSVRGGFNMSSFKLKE

[2] = target: T3, galectin-9C (C-terminal domain) (Homo sapiens, UniProt O00182)
T3 construct: galectins (N = N-terminal domain, C = C-terminal domain); made in house
T3 sequence (O00182 227-355 limits assumed): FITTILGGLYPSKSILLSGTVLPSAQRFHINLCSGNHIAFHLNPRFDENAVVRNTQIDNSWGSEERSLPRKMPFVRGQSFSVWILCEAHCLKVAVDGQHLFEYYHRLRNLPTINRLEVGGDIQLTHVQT

T1 sequence (O00182 17-148 limits assumed): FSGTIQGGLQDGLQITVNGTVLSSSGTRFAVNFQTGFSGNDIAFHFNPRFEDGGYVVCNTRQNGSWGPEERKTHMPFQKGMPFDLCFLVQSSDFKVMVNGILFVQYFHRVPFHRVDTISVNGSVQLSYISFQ

CO[C@@H]1O[C@H](CO)[C@H](O)[C@H](O)[C@H]1O [methyl β-D-galactoside]
Kd [1]: 3.3 mM
Kd (galectin-2): 13 mM
Kd [2]: 8.6 ± 7.31 mM
